From publication PMC5218480 (PLoS ONE, 2017)

Test system: MV-4-11 cells
Experiment: Gene expression microarray analysis (Affymetrix PrimeView) and GSEA
Type: cell-based, human
Set-up: RFU PODN (11730768_x_at) / Fold change /veh PODN (11730768_x_at) / RFU LINC00158 (11744669_a_at) / Fold change /veh LINC00158 (11744669_a_at) / RFU DUSP10 (11751237_a_at) / Fold change /veh DUSP10 (11751237_a_at) / RFU ID3 (11757404_x_at) / Fold change /veh ID3 (11757404_x_at) / RFU PLEKHG5 (11737974_s_at) / Fold change /veh PLEKHG5 (11737974_s_at) / RFU LRRC4B (11730491_at) / Fold change /veh LRRC4B (11730491_at) / RFU GIMAP4 (11747438_a_at) / Fold change /veh GIMAP4 (11747438_a_at) / RFU KRT8 (11758183_x_at) / Fold change /veh KRT8 (11758183_x_at) / RFU CNN1 (11734310_a_at) / Fold change /veh CNN1 (11734310_a_at) / RFU VPS37D (11726825_at) / Fold change /veh VPS37D (11726825_at) / RFU C10orf10 (11716522_x_at) / Fold change /veh C10orf10 (11716522_x_at) / RFU KIR2DL2 /// KIR2DL4 /// KIR2DL5A /// KIR2DL5B /// KIR2DS1 /// KIR2DS2 /// KIR2DS3 /// KIR2DS4 /// KIR3DL3 /// KIR3DL3 /// KIR3DS1 (11738374_at) / Fold change /veh KIR2DL2 /// KIR2DL4 /// KIR2DL5A /// KIR2DL5B /// KIR2DS1 /// KIR2DS2 /// KIR2DS3 /// KIR2DS4 /// KIR3DL3 /// KIR3DL3 /// KIR3DS1 (11738374_at) / RFU C1QL1 (11718748_at) / Fold change /veh C1QL1 (11718748_at) / RFU TMPRSS4 (11747572_a_at) / Fold change /veh TMPRSS4 (11747572_a_at) / RFU HAMP (11756126_x_at) / Fold change /veh HAMP (11756126_x_at) / RFU RNFT2 (11725882_a_at) / Fold change /veh RNFT2 (11725882_a_at) / RFU NR4A2 (11747474_a_at) / Fold change /veh NR4A2 (11747474_a_at) / RFU ABCC12 (11746883_a_at) / Fold change /veh ABCC12 (11746883_a_at) / RFU TMEM136 (11760407_x_at) / Fold change /veh TMEM136 (11760407_x_at) / RFU CLDN22 /// WWC2 (11732394_at) / Fold change /veh CLDN22 /// WWC2 (11732394_at) / RFU HLA-DPB1 (11760878_x_at) / Fold change /veh HLA-DPB1 (11760878_x_at) / RFU SPINT1 (11716480_a_at) / Fold change /veh SPINT1 (11716480_a_at) / RFU GAP43 (11754022_s_at) / Fold change /veh GAP43 (11754022_s_at) / RFU A4GNT (11735810_at) / Fold change /veh A4GNT (11735810_at) / RFU PRB3 (11715151_x_at) / Fold change /veh PRB3 (11715151_x_at) / RFU TUBB4B (11761932_at) / Fold change /veh TUBB4B (11761932_at) / RFU CAPN14 (11732068_a_at) / Fold change /veh CAPN14 (11732068_a_at) / RFU TMCC2 (11721928_a_at) / Fold change /veh TMCC2 (11721928_a_at) / RFU IRGQ (11745062_a_at) / Fold change /veh IRGQ (11745062_a_at) / RFU FAM174B (11720279_a_at) / Fold change /veh FAM174B (11720279_a_at) / RFU TMPRSS4 (11748680_a_at) / Fold change /veh TMPRSS4 (11748680_a_at) / RFU FAM212B (11763350_a_at) / Fold change /veh FAM212B (11763350_a_at) / RFU PLEKHG5 (11743358_a_at) / Fold change /veh PLEKHG5 (11743358_a_at) / RFU ZSCAN30 (11745921_a_at) / Fold change /veh ZSCAN30 (11745921_a_at) / RFU CMKLR1 (11741424_a_at) / Fold change /veh CMKLR1 (11741424_a_at) / RFU LOC101060620 /// MAPK8IP1 (11723275_at) / Fold change /veh LOC101060620 /// MAPK8IP1 (11723275_at) / RFU SPTSSB (11747773_x_at) / Fold change /veh SPTSSB (11747773_x_at) / RFU PRSS12 (11739890_at) / Fold change /veh PRSS12 (11739890_at) / RFU BIN1 (11741810_x_at) / Fold change /veh BIN1 (11741810_x_at) / RFU WNT11 (11732464_a_at) / Fold change /veh WNT11 (11732464_a_at) / RFU C10orf10 (11716521_a_at) / Fold change /veh C10orf10 (11716521_a_at) / RFU C5orf56 (11738089_at) / Fold change /veh C5orf56 (11738089_at) / RFU CYB561 (11721691_x_at) / Fold change /veh CYB561 (11721691_x_at) / RFU ANKRD19P (11752326_a_at) / Fold change /veh ANKRD19P (11752326_a_at) / RFU OR2T12 /// OR2T33 /// OR2T8 (11738714_s_at) / Fold change /veh OR2T12 /// OR2T33 /// OR2T8 (11738714_s_at) / RFU VCAN (11748164_a_at) / Fold change /veh VCAN (11748164_a_at) / RFU JSRP1 (11732532_at) / Fold change /veh JSRP1 (11732532_at) / RFU KRTAP10-11 (11738290_x_at) / Fold change /veh KRTAP10-11 (11738290_x_at) / RFU MYO3A (11730013_a_at) / Fold change /veh MYO3A (11730013_a_at) / RFU EBF3 (11725865_a_at) / Fold change /veh EBF3 (11725865_a_at) / RFU CAMK2N1 (11719241_x_at) / Fold change /veh CAMK2N1 (11719241_x_at) / RFU C5orf56 (11738088_a_at) / Fold change /veh C5orf56 (11738088_a_at) / RFU OLFML3 (11715873_a_at) / Fold change /veh OLFML3 (11715873_a_at) / RFU LOC100653217 /// NTM (11731650_a_at) / Fold change /veh LOC100653217 /// NTM (11731650_a_at) / RFU MAPK11 (11762145_a_at) / Fold change /veh MAPK11 (11762145_a_at) / RFU FIZ1 (11724087_x_at) / Fold change /veh FIZ1 (11724087_x_at) / RFU OASL (11726364_x_at) / Fold change /veh OASL (11726364_x_at) / RFU SOX15 (11748057_x_at) / Fold change /veh SOX15 (11748057_x_at) / RFU CD79A (11719716_a_at) / Fold change /veh CD79A (11719716_a_at) / RFU HIST1H1D (11736915_at) / Fold change /veh HIST1H1D (11736915_at) / RFU CASKIN2 (11723855_a_at) / Fold change /veh CASKIN2 (11723855_a_at) / RFU LOC730098 (11760151_x_at) / Fold change /veh LOC730098 (11760151_x_at) / RFU OR4N2 (11742367_at) / Fold change /veh OR4N2 (11742367_at) / RFU PRRT2 (11749266_a_at) / Fold change /veh PRRT2 (11749266_a_at) / RFU SNX32 (11753110_a_at) / Fold change /veh SNX32 (11753110_a_at) / RFU CDHR5 (11726645_a_at) / Fold change /veh CDHR5 (11726645_a_at) / RFU RCAN1 (11760418_a_at) / Fold change /veh RCAN1 (11760418_a_at) / RFU FAM167A (11723789_a_at) / Fold change /veh FAM167A (11723789_a_at) / RFU FAM26E (11764081_at) / Fold change /veh FAM26E (11764081_at) / RFU ISYNA1 (11749810_s_at) / Fold change /veh ISYNA1 (11749810_s_at) / RFU ACY1 (11761880_at) / Fold change /veh ACY1 (11761880_at) / RFU 11764098_at / Fold change /veh 11764098_at / RFU SAMD14 (11745864_x_at) / Fold change /veh SAMD14 (11745864_x_at) / RFU NPB (11741838_a_at) / Fold change /veh NPB (11741838_a_at) / RFU TMPRSS6 (11731388_a_at) / Fold change /veh TMPRSS6 (11731388_a_at) / RFU KRTAP10-2 (11738614_at) / Fold change /veh KRTAP10-2 (11738614_at) / RFU ARHGAP8 /// PRR5-ARHGAP8 (11727945_x_at) / Fold change /veh ARHGAP8 /// PRR5-ARHGAP8 (11727945_x_at) / RFU KRTAP5-7 /// NADSYN1 (11734609_at) / Fold change /veh KRTAP5-7 /// NADSYN1 (11734609_at) / RFU RASL12 (11751679_a_at) / Fold change /veh RASL12 (11751679_a_at) / RFU CDKN2B (11736163_a_at) / Fold change /veh CDKN2B (11736163_a_at) / RFU PRF1 (11729649_at) / Fold change /veh PRF1 (11729649_at) / RFU, ZNF638 /// ZNF638-IT1 / Fold change vs veh, ZNF638 /// ZNF638-IT1 / RFU, PANK3 / Fold change vs veh, PANK3 / RFU, SH3YL1 / Fold change vs veh, SH3YL1 / RFU, ZEB2 / Fold change vs veh, ZEB2 / RFU, NRIP1 / Fold change vs veh, NRIP1 / RFU, PTTG1IP / Fold change vs veh, PTTG1IP / RFU, CAPN2 / Fold change vs veh, CAPN2 / RFU, MED14 / Fold change vs veh, MED14 / RFU, SNORA58 / Fold change vs veh, SNORA58 / RFU, C1orf63 / Fold change vs veh, C1orf63 / RFU, LRRFIP1 / Fold change vs veh, LRRFIP1 / RFU, NDUFAF7 / Fold change vs veh, NDUFAF7 / RFU, SLC12A2 / Fold change vs veh, SLC12A2 / RFU, IBTK / Fold change vs veh, IBTK / RFU, ESF1 / Fold change vs veh, ESF1 / Fold change vs veh, TMEM50B / RFU, TAOK1 / Fold change vs veh, TAOK1 / RFU, ACBD3 / Fold change vs veh, ACBD3 / RFU, TMA16 / Fold change vs veh, TMA16 / RFU, RWDD3 / Fold change vs veh, RWDD3 / RFU, BCAT1 / Fold change vs veh, BCAT1 / RFU, EDEM3 / Fold change vs veh, EDEM3 / RFU, TMEM33 / Fold change vs veh, TMEM33 / RFU, WDR75 / Fold change vs veh, WDR75 / RFU, AHCTF1 / Fold change vs veh, AHCTF1 / RFU, TFRC / Fold change vs veh, TFRC / RFU, ZDHHC17 / Fold change vs veh, ZDHHC17 / RFU, NOM1 / Fold change vs veh, NOM1 / RFU, ARL8B / Fold change vs veh, ARL8B / RFU, ZBTB11 / Fold change vs veh, ZBTB11 / RFU, TAMM41 / Fold change vs veh, TAMM41 / RFU, KIAA1704 /// LOC100996395 / Fold change vs veh, KIAA1704 /// LOC100996395 / RFU, ING1 / Fold change vs veh, ING1 / RFU, TRMT61B / Fold change vs veh, TRMT61B / RFU, FUBP3 / Fold change vs veh, FUBP3 / RFU, TP53 / Fold change vs veh, TP53 / RFU, TNKS2 / Fold change vs veh, TNKS2 / RFU, ZFP14 / Fold change vs veh, ZFP14 / RFU, ACTR2 / Fold change vs veh, ACTR2 / RFU, PPP3R1 / Fold change vs veh, PPP3R1 / RFU, PIK3R1 / Fold change vs veh, PIK3R1 / RFU, HNRNPA1 / Fold change vs veh, HNRNPA1 / RFU, RNF170 / Fold change vs veh, RNF170 / RFU, ZNF28 / Fold change vs veh, ZNF28 / RFU, RNGTT / Fold change vs veh, RNGTT / RFU, OGT / Fold change vs veh, OGT / RFU, BRD1 / Fold change vs veh, BRD1 / RFU, MARS / Fold change vs veh, MARS / RFU, ZNF655 / Fold change vs veh, ZNF655 / RFU, FAHD1 / Fold change vs veh, FAHD1 / RFU, BDP1 / Fold change vs veh, BDP1 / RFU, LRRCC1 / Fold change vs veh, LRRCC1 / RFU, ARID1A / Fold change vs veh, ARID1A / RFU, ZNF146 / Fold change vs veh, ZNF146 / RFU, ZNF330 / Fold change vs veh, ZNF330 / RFU, GPN3 / Fold change vs veh, GPN3 / RFU, C9orf123 / Fold change vs veh, C9orf123 / RFU, N4BP2L2 / Fold change vs veh, N4BP2L2 / RFU, ARFIP1 / Fold change vs veh, ARFIP1 / RFU, FAM179B / Fold change vs veh, FAM179B / RFU, BCL10 / Fold change vs veh, BCL10 / RFU, UHRF1BP1L / Fold change vs veh, UHRF1BP1L / RFU, BET1 / Fold change vs veh, BET1 / RFU, CNOT2 / Fold change vs veh, CNOT2 / RFU, ZNF268 / Fold change vs veh, ZNF268 / Fold change vs veh, ZNF507 / RFU, DGCR2 / Fold change vs veh, DGCR2 / RFU, WDSUB1 / Fold change vs veh, WDSUB1 / Fold change vs veh, HSP90B1 /// MIR3652 / RFU, ADSS / Fold change vs veh, ADSS / RFU, GK / Fold change vs veh, GK / RFU, ZNF148 / Fold change vs veh, ZNF148 / RFU, TAF9 / Fold change vs veh, TAF9 / RFU, SLC1A5 / Fold change vs veh, SLC1A5 / RFU, SLMO2 / Fold change vs veh, SLMO2 / RFU, ABCC4 / Fold change vs veh, ABCC4 / RFU, LOC101060439 /// RAP1B / Fold change vs veh, LOC101060439 /// RAP1B / RFU, RFX7 / Fold change vs veh, RFX7 / RFU, GTPBP10 / Fold change vs veh, GTPBP10 / RFU, CNEP1R1 / Fold change vs veh, CNEP1R1 / RFU, BIVM-ERCC5 /// ERCC5 / Fold change vs veh, BIVM-ERCC5 /// ERCC5 / RFU, ILF3 / Fold change vs veh, ILF3 / RFU 11762660_at / Fold change /veh 11762660_at / RFU VCAN (11757783_s_at) / Fold change /veh VCAN (11757783_s_at) / RFU DDX43 (11728927_at) / Fold change /veh DDX43 (11728927_at) / RFU KRT8 (11758188_x_at) / Fold change /veh KRT8 (11758188_x_at) / RFU NKD1 (11759106_at) / Fold change /veh NKD1 (11759106_at) / RFU SRD5A1 (11742802_a_at) / Fold change /veh SRD5A1 (11742802_a_at) / RFU TPSAB1 /// TPSB2 (11721975_s_at) / Fold change /veh TPSAB1 /// TPSB2 (11721975_s_at) / RFU GSTM3 (11746129_a_at) / Fold change /veh GSTM3 (11746129_a_at) / RFU IL23R (11737362_x_at) / Fold change /veh IL23R (11737362_x_at) / RFU TMEM51 (11727254_a_at) / Fold change /veh TMEM51 (11727254_a_at) / RFU PIWIL2 (11732686_x_at) / Fold change /veh PIWIL2 (11732686_x_at) / RFU ORM1 (11744905_x_at) / Fold change /veh ORM1 (11744905_x_at) / RFU CCDC152 (11743942_at) / Fold change /veh CCDC152 (11743942_at) / RFU ECM1 (11717891_a_at) / Fold change /veh ECM1 (11717891_a_at) / RFU IL23R (11748794_a_at) / Fold change /veh IL23R (11748794_a_at) / RFU TNFAIP8L3 (11732012_x_at) / Fold change /veh TNFAIP8L3 (11732012_x_at) / RFU MBOAT4 (11741988_at) / Fold change /veh MBOAT4 (11741988_at) / RFU 11764193_at / Fold change /veh 11764193_at / RFU TMEM53 (11763286_at) / Fold change /veh TMEM53 (11763286_at) / RFU MAGEB2 (11727129_at) / Fold change /veh MAGEB2 (11727129_at) / RFU TMEM200A (11744735_a_at) / Fold change /veh TMEM200A (11744735_a_at) / RFU CCDC152 (11751479_a_at) / Fold change /veh CCDC152 (11751479_a_at) / RFU FAM211A (11726209_a_at) / Fold change /veh FAM211A (11726209_a_at) / RFU RGS16 (11746705_a_at) / Fold change /veh RGS16 (11746705_a_at) / RFU VCAN (11755009_s_at) / Fold change /veh VCAN (11755009_s_at) / RFU RHOB (11743442_s_at) / Fold change /veh RHOB (11743442_s_at) / RFU RGS16 (11720943_a_at) / Fold change /veh RGS16 (11720943_a_at) / RFU RGS16 (11720944_at) / Fold change /veh RGS16 (11720944_at) / RFU, VPS4B / Fold change vs veh, VPS4B / RFU, CREB1 / Fold change vs veh, CREB1 / RFU, DNAJC13 / Fold change vs veh, DNAJC13 / RFU, GNAQ / Fold change vs veh, GNAQ / RFU, CDK5R1 / Fold change vs veh, CDK5R1 / RFU, ZRANB3 / Fold change vs veh, ZRANB3 / RFU, CUL4A / Fold change vs veh, CUL4A / RFU, CCNY / Fold change vs veh, CCNY / RFU, UFL1 / Fold change vs veh, UFL1 / RFU, COG3 / Fold change vs veh, COG3 / RFU, DIAPH2 / Fold change vs veh, DIAPH2 / RFU, SKA2 / Fold change vs veh, SKA2 / RFU, AFF3 / Fold change vs veh, AFF3 / RFU, LMF1 / Fold change vs veh, LMF1 / RFU, IPO11 / Fold change vs veh, IPO11 / RFU, DFFB / Fold change vs veh, DFFB / RFU, FOXP1 / Fold change vs veh, FOXP1 / RFU, CARD8 / Fold change vs veh, CARD8 / RFU, STRN3 / Fold change vs veh, STRN3 / RFU, ADK / Fold change vs veh, ADK / RFU, RASSF2 / Fold change vs veh, RASSF2 / RFU, WIPF1 / Fold change vs veh, WIPF1 / RFU, LARP1B / Fold change vs veh, LARP1B / RFU, RASA1 / Fold change vs veh, RASA1 / RFU, RB1 / Fold change vs veh, RB1 / RFU, PPFIA1 / Fold change vs veh, PPFIA1 / RFU, MAT2A / Fold change vs veh, MAT2A / RFU, CCT5 / Fold change vs veh, CCT5 / RFU, WDR92 / Fold change vs veh, WDR92 / RFU, CUX1 / Fold change vs veh, CUX1 / RFU, TTC7A / Fold change vs veh, TTC7A / RFU, TMEM135 / Fold change vs veh, TMEM135 / RFU, DEPTOR / Fold change vs veh, DEPTOR / RFU, CPM / Fold change vs veh, CPM / RFU, DNAJB6 / Fold change vs veh, DNAJB6 / RFU, CACNA2D3 / Fold change vs veh, CACNA2D3 / RFU, DTX4 / Fold change vs veh, DTX4 / RFU, TFCP2 / Fold change vs veh, TFCP2 / RFU, GMCL1 /// GMCL1P1 / Fold change vs veh, GMCL1 /// GMCL1P1 / RFU, AEBP2 / Fold change vs veh, AEBP2 / RFU, SNHG1 /// SNORD22 /// SNORD25 /// SNORD26 /// SNORD27 /// SNORD28 /// SNORD29 /// SNORD31 / Fold change vs veh, SNHG1 /// SNORD22 /// SNORD25 /// SNORD26 /// SNORD27 /// SNORD28 /// SNORD29 /// SNORD31 / Fold change (Aza/veh), C12orf56 (ProbeSet 11735607_a_at) / Fold change (ACY-1035/veh), C12orf56 (ProbeSet 11735607_a_at) / Fold change (Aza/veh), FGFR1OP (ProbeSet 11751329_s_at) / Fold change (ACY-1035/veh), FGFR1OP (ProbeSet 11751329_s_at) / Fold change (Aza/veh), VPS36 (ProbeSet 11739960_a_at) / Fold change (ACY-1035/veh), VPS36 (ProbeSet 11739960_a_at) / RFU SYPL1 (11715823_x_at) / Fold change /veh SYPL1 (11715823_x_at) / RFU IGFBP7 (11715501_s_at) / Fold change /veh IGFBP7 (11715501_s_at) / RFU REEP3 (11722064_at) / Fold change /veh REEP3 (11722064_at) / RFU IGLL1 (11728026_x_at) / Fold change /veh IGLL1 (11728026_x_at): dose or concentration left out as unconfirmed
Conditions: MV-4-11 cells, 48 hours

SMILES: Nc1ncn([C@@H]2O[C@H](CO)[C@@H](O)[C@H]2O)c(=O)n1 [azacitidine]
- Fold change /veh SOX15 (11748057_x_at): 1.06
